From ChEMBL document CHEMBL1137233, “Synthesis and cardiac effects of 3,4-dihydropyrimidin-2(1H)-one-5 carboxylates” (Bioorg Med Chem Lett, 2006)
One block for each compound: values may come before it. The source made the active and inactive calls. The rule behind the calls is not given here.

Key:
Assay type in all cases: functional
Riparian frogs [1] = experiment: Positive inotropic action measured as increase in force of contraction in isolated perfused frog heart; conditions: Hoplobatrachus tigerinus
Riparian frogs [2] = experiment: Increase in cardiac output in isolated perfused frog heart; conditions: Hoplobatrachus tigerinus
Riparian frogs [3] = experiment: Negative chronotropic action measured as decrease in rate of contraction in isolated perfused frog heart; conditions: Hoplobatrachus tigerinus
Riparian frogs [4] = experiment: Positive inotropic action measured as increase in force of contraction in isolated perfused frog heart at 500 ug/ml; conditions: Hoplobatrachus tigerinus
Riparian frogs [5] = experiment: Increase in cardiac output in isolated perfused frog heart at 1 mg/ml; conditions: Hoplobatrachus tigerinus
Riparian frogs [6] = experiment: Positive inotropic action measured as increase in force of contraction in isolated perfused frog heart at 1 mg/ml; conditions: Hoplobatrachus tigerinus
Riparian frogs [7] = experiment: Increase in cardiac output in isolated perfused frog heart at 500 ug/ml; conditions: Hoplobatrachus tigerinus
Riparian frogs [8] = experiment: Effect on rate of contraction in isolated perfused frog heart; conditions: Hoplobatrachus tigerinus
Riparian frogs [9] = experiment: Effect on cardiac output in isolated perfused frog heart; conditions: Ranidae
Riparian frogs [10] = experiment: Effect on force of contraction in isolated perfused frog heart; conditions: Hoplobatrachus tigerinus
[11] = molecular target: Adrenergic receptor beta (Homo sapiens) (UniProt P08588+P07550+P13945); experiment: Antagonist activity at adrenergic beta receptor assessed as inhibition of adrenalin effect
Riparian frogs [12] = experiment: Decrease in cardiac output in isolated perfused frog heart; conditions: Hoplobatrachus tigerinus
Riparian frogs [13] = experiment: Negative inotropic action in isolated perfused frog heart; conditions: Hoplobatrachus tigerinus

SMILES: CCOC(=O)C1=C(C)NC(=O)NC1C(C)C (stereo not given)
Activity (Riparian frogs [1]): Dose-dependent effect | Activity (Riparian frogs [2]): Active | Activity (Riparian frogs [3]): Dose-dependent effect

SMILES: CCOC(=O)C1=C(C)NC(=O)NC1c1ccc(O)cc1 (stereo not given)
Activity (Riparian frogs [1]): Dose-dependent effect | Activity (Riparian frogs [2]): Active | Activity (Riparian frogs [3]): Dose-dependent effect

SMILES: CCOC(=O)C1=C(C)NC(=O)NC1c1ccc(-c2ccccc2)cc1 (stereo not given)
Activity (Riparian frogs [4]): Active | Activity (Riparian frogs [5]): Active | Activity (Riparian frogs [6]): Active | Activity (Riparian frogs [7]): Active

SMILES: CCOC(=O)C1=C(C)NC(=O)NC1c1cccc(O)c1 (stereo not given)
Activity (Riparian frogs [1]): Dose-dependent effect | Activity (Riparian frogs [2]): Active | Activity (Riparian frogs [3]): Dose-dependent effect

SMILES: CCOC(=O)C1=C(C)NC(=O)NC1c1ccc(OC)cc1 (stereo not given)
Activity (Riparian frogs [1]): Active | Activity (Riparian frogs [2]): Active | Activity (Riparian frogs [3]): Active

SMILES: CC1=C(C(=O)Oc2ccccc2)C(c2cccc(O)c2)NC(=O)N1 (stereo not given)
Activity (Riparian frogs [1]): Dose-dependent effect | Activity (Riparian frogs [2]): Active | Activity (Riparian frogs [3]): Dose-dependent effect

SMILES: CCOC(=O)C1=C(C)NC(=O)NC1c1ccccc1[N+](=O)[O-] (stereo not given)
Activity (Riparian frogs [8]): inactive | Activity (Riparian frogs [9]): inactive | Activity (Riparian frogs [10]): inactive

Activity [11]: Active
SMILES: COC(=O)C1=C(C)NC(=O)NC1c1ccccc1Cl (stereo not given)
Activity (Riparian frogs [12]): Active | Activity (Riparian frogs [13]): Active | Activity (Riparian frogs [3]): Active

Activity [11]: Active
SMILES: CCOC(=O)C1=C(C)NC(=O)NC1c1ccccc1Cl (stereo not given)
Activity (Riparian frogs [12]): Active | Activity (Riparian frogs [13]): Active | Activity (Riparian frogs [3]): Active
